According to BindingDB's records for doi:10.1021/jm00128a043 (Wellcome Research Laboratories, 1989):
pKi: −log10 of the molar value.

Legend:
[1] = Antibacterial activity against Staphylococcus aureus
[2] = Inhibition of Staphylococcus aureus DHFR

SMILES | pKi [1] | pKi [2]
CCCc1cc(Cc2cnc(N)nc2N)cc(CCC)c1OC | 8.49 | 
C=CCc1cc(Cc2cnc(N)nc2N)cc(OC)c1OC |  | 8.55
C=CCOc1cc(Cc2cnc(N)nc2N)cc(OC)c1OC | 8.52 | 
CCCOc1cc(Cc2cnc(N)nc2N)cc(OC)c1OC |  | 8.85
CCOc1cc(Cc2cnc(N)nc2N)cc(OC)c1OC |  | 8.60
C/C=C/c1cc(Cc2cnc(N)nc2N)cc(OC)c1OC |  | 8.85
